In PMC10632520, “Structural flexibility of apolipoprotein E-derived arginine-rich peptides improves their cell penetration capability” (Scientific Reports, 2023):
Residues, ends and D or L forms follow the SMILES beside them.

Assay: Channel current (electrophysiological) analysis of peptide-induced pores
Assay type: physicochemical
Conditions: planar DOPC bilayer, 10 µM peptide, 100 mV; pH 7.0
Experimental: Electrophysiological measurements were performed using a MECA 16 TC chip with an Orbit 16 TC device (Nanion Technologies GmbH, Munich, Germany) according to the manufacturer’s instructions. The MECA 16 TC chamber was filled with 200 µL of buffer solution (150 mM KCl, 10 mM MOPS, pH 7.0); 1 µL of DOPC (lipid/n-decan, 10 mg/mL) solution was added to the chamber, and planar lipid bilayers were automatically prepared using the Orbit 16TC stirrer. The peptide was then dissolved in the chamber at 10 µM (a lipid/peptide molar ratio of ~ 6 in the chamber system), and 100 mV of voltage was applied. The channel current was monitored using the Orbit 16 TC Elements Data Reader 4 v.1.0.22. The channel current signals were detected using a 4-kHz low-pass filter at a sampling frequency of 20 kHz. Analysis of the channel signals was performed using pCLAMP ver. 10.7 (Molecular Devices, CA, USA). The data obtained in this measurement are n (number of current signals): 2081 > n > 311; N (number of experiments) > 3.

CC(=O)N[C@@H](CC(C)C)C(=O)N[C@@H](CCCNC(=N)N)C(=O)N[C@@H](CCCCN)C(=O)N[C@@H](CC(C)C)C(=O)N[C@@H](CCCNC(=N)N)C(=O)N[C@@H](CCCCN)C(=O)N[C@@H](CCCNC(=N)N)C(=O)N[C@@H](CC(C)C)C(=O)N[C@@H](CC(C)C)C(=O)N[C@@H](CCCNC(=N)N)C(=O)N[C@@H](CC(C)C)C(=O)N[C@@H](Cc1c[nH]c2ccccc12)C(=O)N[C@@H](CCCCN)C(=O)N[C@@H](CC(C)C)C(=O)N[C@@H](CCCNC(=N)N)C(=O)N[C@@H](CCCCN)C(=O)N[C@@H](CCCNC(=N)N)C(N)=O [A2-17] (Ac-LRKLRKRLLRLWKLRKR-NH2)
charge flux accompanied by spike current signal: much greater for A2-17 than that for StpA2-17 or StchA2-17
